Values quoted from earlier work as cited in US20230073946A1, “AFFINITY PEPTIDE […] A[…] PROTECTION OF PROTEINS FROM OXIDATION” (ARIZONA BOARD OF REGENTS ON BEHALF OF THE UNIVERSITY OF …, priority 2020, published 2023).

Test system: sugen/hypoxic PAH model
Conditions: cited from earlier work

## CC1(C)CC(O)CC(C)(C)N1[O] [TEMPOL]
Recently reported
  preventing pulmonary arterial remodeling: not effective
sugen/hypoxic PAH model, reported
  right ventricular hypertrophy and pulmonary arterial remodeling: failed to attenuate
